The values below come from patent US8895585B2, “Nicotinamide derivative or salt thereof” (FUJIFILM Corporation, priority 2010, dated 2014).

SMILES strings stand for the structures.

Experiment [1] concerns the target T1, glutathione S-transferase (GST)-fused full-length human Syk protein (Homo sapiens, UniProt P43405).
T1 construct: (GST)-fused full-length human Syk protein; GST (glutathione S-transferase); purchased Carna Biosciences
Briefly: Syk enzyme assay. To be noted: Syk enzyme assay, Test Example 1; read-out: IC50 of Syk-inhibitory activity. It is filed as biochemical. The method, boiled down:
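IC50 values come from a time-resolved FRET readout (615 and 665 nm) of substrate phosphorylation, measured after an EDTA stop and 1 h antibody binding. The kinase reaction ran 40 min at room temperature with 27 μM ATP and 0.4 μM biotin-peptide, following a 15 min compound preincubation with baculovirus-made GST-full-length human Syk.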

Another experiment has as its system THP-1 cells. Put plainly: TNFα generation assay. It is filed as cell-based, human. To be noted: Homo sapiens, THP-1, THP-1 cells; Table 22; read-out: IC50 in TNFα generation assay. The method, boiled down: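 THP-1 cells differentiated to macrophage-like cells with 10 ng/ml IFN-γ for 2 days, preincubated with compound 30 min at room temperature, then cultured 7 h on plates coated with human IgG (10 μg/ml). Secreted TNFα measured by ELISA or AlphaLISA.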

As for `Cn1cnc2cc(Nc3nc(N[C@@H]4CCCC[C@@H]4N)c(F)cc3C(N)=O)cnc21` [Example 004-027], the results for the IC50 (in experiment [1]; with THP-1 cells) were 0.01 to 0.05 µM and 0.13 to 0.2 µM, respectively.

`COc1cc(Nc2nc(N[C@H](c3ccc(F)cc3)[C@H](C)N)c(F)cc2C(N)=O)ccn1` [Example 006-556, 6-(((1R,2S)-2-amino-1-(4-fluorophenyl)propyl)amino)-5-fluoro-2-((2-methoxypyridin-4-yl)amino)nicotinamide]: the IC50 was under 0.01 µM in experiment [1] and 0.065 to 0.13 µM in the experiment on THP-1 cells.

For `Cc1cc(Nc2nc(NC3CCCCC3N)c(F)cc2C(N)=O)cnc1C` (stereo not drawn) [Example 002-024], the IC50 in experiment [1] was under 0.01 µM; with THP-1 cells it was 0.13 to 0.2 µM.

For the molecule `CCC[C@@H](Nc1nc(Nc2ccnc(OCCOC)c2)c(C(N)=O)cc1F)[C@@H](N)CC` [Example 006-401, 6-(((3S,4R)-3-aminoheptan-4-yl)amino)-5-fluoro-2-((2-(2-methoxyethoxy)pyridin-4-yl)amino)nicotinamide], the figures for the IC50 (in experiment [1]; in the experiment with THP-1 cells) were 0.01 to 0.05 µM and 0.13 to 0.2 µM, respectively.

On to `Cc1cc(Nc2nc(N[C@@H]3CCCC[C@@H]3N)c(F)cc2C(N)=O)ccn1` [Example 004-018], for which the IC50 lay in the range of 0.01 to 0.05 µM in experiment [1] and 0.065 to 0.13 µM in the experiment on THP-1 cells.

For the molecule `CC(C)C[C@H](CN)Nc1nc(Nc2ccnc(-c3ccccc3F)c2)c(C(N)=O)cc1F` [Example 006-324, (R)-6-((1-amino-4-methylpentan-2-yl)amino)-5-fluoro-2-((2-(2-fluorophenyl)pyridin-4-yl)amino)nicotinamide], the IC50 in experiment [1] is under 0.01 µM; with THP-1 cells, 0.13 to 0.2 µM.

As for `NC(=O)Nc1cccc2cc(Nc3nc(N[C@@H]4CCCC[C@@H]4N)c(F)cc3C(N)=O)cnc12` (relative stereo) [Example 004-064], the IC50 in experiment [1] is 0.1 to 1 µM; in the experiment on THP-1 cells it was under 0.065 µM.

Turning to `COc1cc(Nc2nc(N[C@@H](CN)CC(C)C)c(F)cc2C(N)=O)ccn1` [Example 006-234, (R)-6-((1-amino-4-methylpentan-2-yl)amino)-5-fluoro-2-((2-methoxypyridin-4-yl)amino)nicotinamide], the values for the IC50 (in experiment [1]; in the experiment on THP-1 cells) were under 0.01 µM and 0.065 to 0.13 µM, respectively.

`NC(=O)c1cc(F)c(N[C@@H]2CCCC[C@@H]2N)nc1Nc1cncc(-c2ccccn2)c1` [Example 004-106]: the IC50 in experiment [1] was under 0.01 µM; with THP-1 cells, 0.13 to 0.2 µM.

On to `CC(C)[C@H](CN)Nc1nc(Nc2ccc3ncccc3c2)c(C(N)=O)cc1F` [Example 006-160, (R)-6-((1-amino-3-methylbutan-2-yl)amino)-5-fluoro-2-(quinolin-6-ylamino)nicotinamide], for which the IC50 in experiment [1] is under 0.01 µM; in the experiment on THP-1 cells, 0.065 to 0.13 µM.

For the molecule `CC[C@@H](Nc1nc(Nc2ccc3ncccc3c2)c(C(N)=O)cc1F)[C@H](C)N` [Example 006-178, 6-(((2S,3R)-2-aminopentan-3-yl)amino)-5-fluoro-2-((quinolin-6-yl)amino)nicotinamide], the IC50 is under 0.01 µM in experiment [1] and under 0.065 µM with THP-1 cells.

Consider `CC(C)C[C@H](CN)Nc1nc(Nc2cncc(-c3ccccc3F)c2)c(C(N)=O)cc1F` [Example 006-316, (R)-6-((1-amino-4-methylpentan-2-yl)amino)-5-fluoro-2-((5-(2-fluorophenyl)pyridin-3-yl)amino)nicotinamide], for which the results for the IC50 (in experiment [1]; with THP-1 cells) were 0.01 to 0.05 µM and 0.13 to 0.2 µM, respectively.

In the case of `CC[C@H](N)[C@@H](CC)Nc1nc(Nc2ccc3c(cnn3CC)c2)c(C(N)=O)cc1F` [Example 006-365, 6-(((3R,4S)-4-aminohexan-3-yl)amino)-2-((1-ethyl-1H-indazol-5-yl)amino)-5-fluoronicotinamide], the IC50 in experiment [1] was under 0.01 µM; in the experiment with THP-1 cells, 0.065 to 0.13 µM.

On to `CCCC[C@H](CN)Nc1nc(Nc2ccc3cnn(C)c3c2)c(C(N)=O)cc1F` [Example 006-360, (R)-6-((1-aminohexan-2-yl)amino)-5-fluoro-2-((1-methyl-1H-indazol-6-yl)amino)nicotinamide], for which the IC50 in experiment [1] was under 0.01 µM; with THP-1 cells it was 0.065 to 0.13 µM.

Take `CC[C@@H](Nc1nc(Nc2cnc3cc(OCCOC)ccc3c2)c(C(N)=O)cc1F)[C@H](C)N` [Example 006-259, 6-(((2S,3R)-2-aminopentan-3-yl)amino)-5-fluoro-2-((7-(2-methoxyethoxy)quinolin-3-yl)amino)nicotinamide]: the IC50 in experiment [1] is under 0.01 µM; in the experiment on THP-1 cells it was under 0.065 µM.

`Cc1nccc(Nc2nc(NC3CCCCC3N)c(F)cc2C(N)=O)c1F` (stereo not drawn) [Example 002-163]: the IC50 in experiment [1] fell in the range of 0.01 to 0.05 µM; in the experiment with THP-1 cells it was 0.13 to 0.2 µM.

As for `COCCOc1ccc2cc(Nc3nc(NC4CCCCC4N)c(F)cc3C(N)=O)ccc2n1` (stereo not drawn) [Example 002-097], the IC50 was under 0.01 µM in experiment [1] and 0.13 to 0.2 µM with THP-1 cells.

As to `CCC[C@@H](Nc1nc(Nc2cnc(C)c(-n3nccn3)c2)c(C(N)=O)cc1F)[C@H](C)N` [Example 006-252, 6-(((2S,3R)-2-aminohexan-3-yl)amino)-5-fluoro-2-((6-methyl-5-(2H-1,2,3-triazol-2-yl)pyridin-3-yl)amino)nicotinamide], the IC50 in experiment [1] was under 0.01 µM; in the experiment on THP-1 cells, 0.065 to 0.13 µM.

As for `CCOc1nn(CC)c2ccc(Nc3nc(N[C@H](CC(C)C)[C@H](C)N)c(F)cc3C(N)=O)cc12` [Example 006-592, 6-(((2S,3R)-2-amino-5-methylhexan-3-yl)amino)-2-((3-ethoxy-1-ethyl-1H-indazol-5-yl)amino)-5-fluoronicotinamide], the figures for the IC50 (in experiment [1]; with THP-1 cells) were under 0.01 µM and 0.13 to 0.2 µM, respectively.

Consider `NC(=O)c1cc(F)c(N[C@@H]2CCCC[C@@H]2N)nc1Nc1cnc2c(ccn2CCN2CCCC2)c1` [Example 004-022], for which the IC50 in experiment [1] lay in the range of 0.01 to 0.05 µM; in the experiment with THP-1 cells, 0.065 to 0.13 µM.

For the molecule `C[C@H](N)[C@H](Nc1nc(Nc2ccc3c(c2)c(F)nn3C)c(C(N)=O)cc1F)C1CC1` [Example 006-577, 6-(((1R,2S)-2-amino-1-cyclopropylpropyl)amino)-2-((3-fluoro-1-methyl-1H-indazol-5-yl)amino)-5-fluoronicotinamide], the IC50 is under 0.01 µM in experiment [1] and under 0.065 µM in the experiment on THP-1 cells.

As to `COc1nn(C)c2ccc(Nc3nc(N[C@H](CC(C)C)[C@H](C)N)c(F)cc3C(N)=O)cc12` [Example 006-587, 6-(((2S,3R)-2-amino-5-methylhexan-3-yl)amino)-5-fluoro-2-((3-methoxy-1-methyl-1H-indazol-5-yl)amino)nicotinamide], the IC50 in experiment [1] is under 0.01 µM; in the experiment with THP-1 cells, 0.065 to 0.13 µM.

Turning to `CC[C@@H](Nc1nc(Nc2ccnc(-c3cc(OC)ccc3F)c2)c(C(N)=O)cc1F)[C@H](C)N` [Example 006-315, 6-(((2S,3R)-2-aminopentan-3-yl)amino)-5-fluoro-2-((2-(2-fluoro-5-methoxyphenyl)pyridin-4-yl)amino)nicotinamide], the IC50 in experiment [1] was under 0.01 µM; with THP-1 cells, under 0.065 µM.

Take `COc1cccc(-c2cc(Nc3nc(NC4CCCCC4N)c(F)cc3C(N)=O)ccn2)c1F` (stereo not drawn) [Example 002-139]: the IC50 in experiment [1] was under 0.01 µM; in the experiment with THP-1 cells, 0.065 to 0.13 µM.

On to `COCCn1nc(C)c2ccc(Nc3nc(N[C@H](CC4CC4)[C@H](C)N)c(F)cc3C(N)=O)cc21` [Example 006-487, 6-(((2R,3S)-3-amino-1-cyclopropylbutan-2-yl)amino)-5-fluoro-2-((1-(2-methoxyethyl)-3-methyl-1H-indazol-6-yl)amino)nicotinamide], for which the IC50 in experiment [1] is under 0.01 µM; in the experiment with THP-1 cells, 0.13 to 0.2 µM.

Consider `CC(C)C[C@H](CN)Nc1nc(Nc2ccnc(-n3ccnn3)c2)c(C(N)=O)cc1F` [Example 006-143, (R)-2-((2-(1H-1,2,3-triazol-1-yl)pyridin-4-yl)amino)-6-((1-amino-4-methylpentan-2-yl)amino)-5-fluoronicotinamide], for which the IC50 in experiment [1] is under 0.01 µM; in the experiment on THP-1 cells it was 0.13 to 0.2 µM.

For the molecule `CC(C)C[C@H](CN)Nc1nc(Nc2ccc3nccnc3c2)c(C(N)=O)cc1F` [Example 006-212, (R)-6-((1-amino-4-methylpentan-2-yl)amino)-5-fluoro-2-((quinoxalin-6-yl)amino)nicotinamide], the figures for the IC50 (in experiment [1]; with THP-1 cells) were under 0.01 µM and 0.13 to 0.2 µM, respectively.

Consider `CCOc1cc(Nc2nc(N[C@H](C)[C@H](C)N)c(F)cc2C(N)=O)ccn1` (racemic) [Example 006-213, 6-(((2R,3S)-3-aminobutan-2-yl)amino)-2-((2-ethoxypyridin-4-yl)amino)-5-fluoronicotinamide 6-(((2S,3R)-3-aminobutan-2-yl)amino)-2-((2-ethoxypyridin-4-yl)amino)-5-fluoronicotinamide], for which the IC50 in experiment [1] is under 0.01 µM; in the experiment on THP-1 cells, 0.13 to 0.2 µM.

On to `COC(=O)c1cncc(Nc2nc(N[C@@H]3CCCC[C@@H]3N)c(F)cc2C(N)=O)c1` [Example 004-016], for which the IC50 was under 0.01 µM in experiment [1] and 0.065 to 0.13 µM with THP-1 cells.

Turning to `COCCn1ncc2c(Nc3nc(NC4CCCCC4N)c(F)cc3C(N)=O)cccc21` (stereo not drawn) [Example 002-030], the IC50 in experiment [1] was under 0.01 µM; in the experiment with THP-1 cells, 0.13 to 0.2 µM.

Regarding `CC(C)C[C@@H](Nc1nc(Nc2ccc3c(c2)c(C2CC2)nn3C)c(C(N)=O)cc1F)[C@H](C)N` [Example 006-546, 6-(((2S,3R)-2-amino-5-methylhexan-3-yl)amino)-2-((3-cyclopropyl-1-methyl-1H-indazol-5-yl)amino)-5-fluoronicotinamide], the IC50 in experiment [1] is under 0.01 µM; in the experiment on THP-1 cells it was 0.13 to 0.2 µM.

As for `NC(=O)c1cc(F)c(N[C@@H]2CCCC[C@@H]2N)nc1Nc1ccnc2c1ccn2CCN1CCOCC1` [Example 004-025], the IC50 was under 0.01 µM in experiment [1] and under 0.065 µM with THP-1 cells.

Consider `NC(=O)c1cc(F)c(N[C@H](Cc2ccccc2)C(N)=O)nc1Nc1ccnc2c1ccn2CC1CC1` [Example 004-046], for which the IC50 was under 0.01 µM in experiment [1] and 0.13 to 0.2 µM with THP-1 cells.
